Earlier results in US5436246A, “Serotonin receptor agents” (priority 1993, dated 1995).

Assays:
[1] = Peroutka et al.; Saxena et al.; Hamel et al.; cited from earlier work
[2] = early clinical trials; cited from earlier work
[3] = Eur. J. Pharmacol. 144, 223 (1987); 158, 53 (1988); cited from earlier work
[4] = Eur. J. Pharmacol. 180, 339 (1990); 182, 63 (1990); cited from earlier work
[5] = Eide, Neuropharm. 31, 541 (1992); cited from earlier work
[6] = Bielenberg et al., Stroke Supplement IV, 21 (1990); cited from earlier work

With `CNS(=O)(=O)Cc1ccc2[nH]cc(CCN(C)C)c2c1` [sumatriptan] as the compound, how does the “antimigraine-like effects in animal models” value [1] read?
The value was “produce antimigraine-like effects in animal models”.

What about the “termination of acute migraine attacks” value [2] of the same compound?
Its value is “terminate acute migraine attacks in early clinical trials”.

Which “effect in rodent models for depression” value [3] does the source give for `CCCN(CCC)C1CCc2cccc(O)c2C1` (stereo not drawn) [8-OH DPAT, 8-hydroxy-2-(di-N-propylamino) tetralin] here?
Its value is “effective in rodent models for depression”.

And the “antihypertensive effect in rodent models” value [4]?
Its value is “effective for the treatment of hypertension in rodent models”.

And the analgesic effect [5]?
The analgesic effect was “effective as analgesics”.

And the “neuronal destruction in rodent models of stroke” value [6]?
Its value is “inhibited or decreased neuronal destruction”.
